From patent US4411909A, “[(2-Oxo-3-tetrahydrothienylcarbamoyl)-alkylthio] acetic acids, their salts and esters, a process for preparation thereof and the pharmaceutical compositions containing same” (priority 1981, dated 1983)

Experiments:
[1] = tested on: bronchial mucus; assay: test of activity in the rabbit: production/secretion of bronchial mucus (tracheal cannula, technique of Scuri et al.); type: in vivo; settings: for variation % of secretion of mucus with respect to controls: intravenous, 10 mg/kg, 4 hours following vs 4 hours preceding treatment, versus physiological solution controls
Method: Rabbits were used weighing about 3 kg with a cannula implanted in the trachea according to the technique of Scuri et al., Boll. Chim. Farm., 119,(3), 1980. The quantity of mucus produced and excreted was recorded during the 4 hours preceding and the 4 hours following the treatment.

[2] = tested on: damage provoked by the action of sulfur dioxide on the bronchi; assay: test of mucolytic activity based on the inhalation of SO2 in the rat; type: in vivo
Excerpt: In the test of mucolytic activity based on the inhalation of SO2 in the rat, the compounds of the present invention have shown a good mucolytic activity.

[3] = acute toxicity in the mouse; settings: in vivo
[4] = acute toxicity in the rat; settings: in vivo
[5] = toxicity, overall statement; type: in vivo; settings: in words
[6] = intravenous, read-out: LD50 i.v.

| Compound | variation % of secretion of mucus with respect to controls [1] [%] | activity compared with reference product carbocysteine (mucus secretion) ([1]; i.v., same dose by weight (10 mg/kg)) | regression of bronchial damage compared with carbocysteine ([2]; PV 144 oral 500 mg/kg vs carbocysteine 500 mg/kg (3.35 mmol/kg)) | regression of the damage provoked by sulfur dioxide on the bronchi ([2]; oral, 500 mg/kg (2 mmol/kg)) | LD50 [3, 6] [mg/kg] | LD50 ([3]; oral, read-out: LD50 oral) [mg/kg] | LD50 [4, 6] [mg/kg] | LD50 ([4]; oral, read-out: LD50 oral) [mg/kg] | toxicity [5] |
| --- | --- | --- | --- | --- | --- | --- | --- | --- | --- |
| N[C@@H](CSCC(=O)O)C(=O)O [carbocysteine, S-carboxymethylcysteine, reference compound] | 51.8 | – | – | – | – | – | – | – | – |
| O=C(O)CSCC(=O)NC1CCSC1=O (stereo not shown) [PV 144, [(2-oxo-3-tetrahydrothienylcarbamoyl)-methylthio]acetic acid] | 52.1 | at least as active as the reference product | qualitatively and quantitatively equal | significant regression of the damage | > 3500 | > 10000 | > 3500 | > 10000 | virtually without toxicity |
